Results on six compounds are retold here after patent publication US12516058B2, “Small-molecule compounds for controlling endosomal toll-like receptors and therapeutic agent for autoimmune diseases using same” (priority 2020, dated 2026).

Entries after “also recorded” stand apart in the source; their conditions may differ.

The first test concerns the target T1, TLR7 (Mus musculus, UniProt P58681).
T1 construct: endogenous in cells; host or cells: RAW 264.7
T1 sequence (P58681 27-1050): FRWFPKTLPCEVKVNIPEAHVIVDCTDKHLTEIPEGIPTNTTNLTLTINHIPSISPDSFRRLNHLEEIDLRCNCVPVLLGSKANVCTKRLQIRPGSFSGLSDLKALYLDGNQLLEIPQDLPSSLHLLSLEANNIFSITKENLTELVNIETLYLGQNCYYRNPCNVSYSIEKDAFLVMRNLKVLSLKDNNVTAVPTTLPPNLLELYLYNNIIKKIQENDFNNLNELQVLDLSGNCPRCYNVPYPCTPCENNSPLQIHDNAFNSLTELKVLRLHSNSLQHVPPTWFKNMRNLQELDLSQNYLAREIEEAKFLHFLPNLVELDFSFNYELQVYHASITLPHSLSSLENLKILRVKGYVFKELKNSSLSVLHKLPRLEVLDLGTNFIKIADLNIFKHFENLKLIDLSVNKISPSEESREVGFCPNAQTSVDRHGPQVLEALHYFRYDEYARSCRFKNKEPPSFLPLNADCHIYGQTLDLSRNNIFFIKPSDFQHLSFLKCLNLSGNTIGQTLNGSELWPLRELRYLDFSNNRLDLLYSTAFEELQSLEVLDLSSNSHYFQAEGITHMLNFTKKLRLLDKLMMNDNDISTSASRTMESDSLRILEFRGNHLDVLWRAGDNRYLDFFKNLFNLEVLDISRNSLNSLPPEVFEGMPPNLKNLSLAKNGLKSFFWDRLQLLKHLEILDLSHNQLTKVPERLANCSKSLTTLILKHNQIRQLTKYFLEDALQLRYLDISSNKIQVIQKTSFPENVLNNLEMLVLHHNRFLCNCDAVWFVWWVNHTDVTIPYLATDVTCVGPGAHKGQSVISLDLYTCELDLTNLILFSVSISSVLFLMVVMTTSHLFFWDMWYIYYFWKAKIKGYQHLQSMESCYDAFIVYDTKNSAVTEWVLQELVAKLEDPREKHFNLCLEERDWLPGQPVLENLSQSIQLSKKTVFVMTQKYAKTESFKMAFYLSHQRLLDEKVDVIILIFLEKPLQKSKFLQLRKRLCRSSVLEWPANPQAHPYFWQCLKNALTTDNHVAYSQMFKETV
The experiment in a line: TNF-α secretion ELISA after TLR7 agonist imiquimod (IMQ) in RAW 264.7 cells. The class given is cell-based. To be noted: SK01 and structural derivatives, inhibitor 1 h, then IMQ 4 h. Background: In an ELISA, binding on a coated surface is turned into a signal by an enzyme label.
Consider `Cc1c(C)n(CCN(C)C)c2nc3c(c(N)c12)CCCCC3` [SK01, 1-(2-(dimethylamino)ethyl)-2,3-dimethyl-1,5,6,7,8,9-hexahydrocyclohepta[b]pyrrolo[3,2-e]pyridin-4-amine], for which the “inhibitory activity against TLR7 activation (TNF-α secretion)” value was “inhibitory ability for TLR7/TLR9 activation was verified; also recorded: specifically inhibit”. In the case of `Cc1c(C)n(CCCN(C)C)c2nc3c(c(N)c12)CCCCC3` [SK16, 1-(3-(dimethylamino)propyl)-2,3-dimethyl-1,5,6,7,8,9-hexahydrocyclohepta[b]pyrrolo[3,2-e]pyridin-4-amine], the “inhibitory activity against TLR7 activation (TNF-α secretion)” value is given as “potent inhibitor; also recorded: best inhibitory activity among the structural analogues of SK01; also recorded: specifically inhibit”.

The test is the same for the next values; noted with them: SK21 to SK82 at 0.5 μM or 2 μM, Imiquimod 1 μg/ml.
Turning to `Cc1cc2c(N)c3c(nc2n1CCCN(C)C)CCCCCC3` [SK41, 1-(3-(dimethylamino)propyl)-2-methyl-5,6,7,8,9,10-hexahydro-1H-cycloocta[b]pyrrolo[3,2-e]pyridin-4-amine], the “inhibitory activity against TLR7 (level of TNF-α secretion)” value was “significant inhibitory activity; also recorded: significantly reduced”.

`COc1ccc2c(c1)c1c(N)c3c(nc1n2CCCN(C)C)CCCC3` [SK50, 6-(3-(dimethylamino)propyl)-9-methoxy-2,3,4,6-tetrahydro-1H-indolo[2,3-b]quinolin-11-amine]: the “inhibitory activity against TLR7 (level of TNF-α secretion)” value was “significant inhibitory activity; also recorded: significantly reduced”. For the compound `Cc1ccc2c(c1)c1c(N)c3c(nc1n2CCCN(C)C)CCCC3` [SK58, 6-(3-(dimethylamino)propyl)-9-methyl-2,3,4,6-tetrahydro-1H-indolo[2,3-b]quinolin-11-amine], the “inhibitory activity against TLR7 (level of TNF-α secretion)” value is reported as “significant inhibitory activity; also recorded: significantly reduced”.

Take `COC(=O)c1ccc2c(c1)c1c(N)c3c(nc1n2CCCN(C)C)CCCC3` [SK64, Methyl 11-amino-6-(3-(dimethylamino)propyl)-2,3,4,6-tetrahydro-1H-indolo[2,3-b]quinolin-9-carboxylate]: the “inhibitory activity against TLR7 (level of TNF-α secretion)” value is given as “significant inhibitory activity; also recorded: significantly reduced”.
